Test results as given in patent US5747488A, “2-aryl-5,11-dihydro-6H-dipyrido[3,2-B:2',3'-E][1, 4]diazepines and their use in the treatment of HIV infection” (Boehringer Ingelheim Pharmaceuticals, Inc., priority 1996, dated 1998).

Assays:
[1] = target: T1, HIV-1 reverse transcriptase, wild type (WT) (Human immunodeficiency virus type 1 (BRU ISOLATE), UniProt P03367); assay: Reverse transcriptase (RT) assay, wild type enzyme (RNA-dependent DNA polymerase activity); format: biochemical, Human Immunodeficiency Virus (HIV-1), LAV strain; conditions: read-out: RT (WT) Assay % inh. (1 μM)
T1 construct: recombinant clone pBRTprtl+ (vector pIBI21, lac promoter) in E. coli JM109
Source text: Utilizing the Reverse Transcriptase (RT) Assay described below, compounds can be tested for their ability to inhibit the RNA-dependent DNA polymerase activity of HIV-1 RT. Certain specific compounds described in the Examples which appear below, were so tested.
Among the enzymes for which Human Immunodeficiency Virus (HIV-1) encodes is a reverse transcriptase (1), so-named because it transcribes a DNA copy from an RNA template. This activity can be quantitatively measured in a cell-free enzyme assay, which has been previously described (2), and is based upon the observation that reverse transcriptase is able to use a synthetic template [poly r(C) primed with oligo d(G)] to transcribe a radio-labelled, acid-precipitable DNA strand utilizing ^3 H-dGTP as a substrate. The assay described below utilizes the wild type (WT) enzyme, which is the predominant form of the enzyme observed in patients infected with HIV-1. Utilization of the mutant RT enzyme (Y181C, prepared by site-directed mutagenesis in which the tyrosine residue at codon 181 has been replaced by a cysteine residue) and analogous assay conditions allows compounds to be evaluated for their effectiveness at inhibiting this mutant enzyme. […]

MTT assay (cytotoxicity) = format: cell-based; conditions: human; H9 cells, five days
Protocol: In order to roughly assess the cytotoxicity of the compounds provided by the invention, several such compounds were tested in the MTT Assay described below. Compounds having a relatively high CC50 are preferred.
The MTT [3-(4,5-dimethylthiazol-2-yl)-2,5 diphenyl tetrazolium bromide) assay is based on cleavage of tetrazolium bromide by metabolically active cells, resulting in a highly quantitative blue color. This assay has been previously described (1) but has been optimized for the purposes of the testing reported herein.
The H9 cell line (2), an established human lymphoma suspension cell line grown in RPMI 1640 supplemented with 10% fetal bovine serum, is used as the target cell line in the assay. Cells (100 μL) are plated in microtest plate wells at a concentration of 10^5 cells per mL in the presence of varying concentrations of inhibitor. The cells are incubated at 37° C. in a humidified CO2 incubator. Five days later, 20 μL of MTT (5 mg/mL in RPMI 1640, sonicated, 0.2 micron filtered, and stored at 4° C.) is added to each well. After 4 hours additional incubation at 37° C., 60 μL of Triton-X is added to each well and thoroughly mixed to aid the solubilization of the crystals. Absolute ethanol (5 μL) is added to each well and the resulting mixture is incubated for 30 minutes at 60° C. and immediately read on a plate reader (Dynatech) at a wavelength of 570 nm. […]

For CCN1c2ncccc2-c2ncc(C)n2-c2ccc(-c3cn[nH]c3)nc21 [Example 1, 8-Ethyl-1-methyl-10-(4-pyrazolyl)imidazo[2',3':6,5]dipyrido[3,2-b:2',3'-e][1,4]diazepine], the inhibition at 1 µM [1] was 95% and the CC50 at 120 h (MTT assay (cytotoxicity)) was > 100 µM.
